# Values joined by “and” are separate entries in the source; they are usually repeats but may differ in a detail not shown here. Identical values can stand only once. Toxic doses and inconclusive results are not listed.
# Tested on: BDF1 mice, P388 leukemia ip, median survival T/C
# Assay: NCI In Vivo Anticancer Drug Screen. Data for tumor model P388 Leukemia (intraperitoneal) in B6D2F1 (BDF1) mice
# Settings: endpoint: median survival time, higher = longer survival
# In short: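 Each value expresses how treatment altered survival: treated-mouse outcome over vehicle-mouse outcome, both groups bearing the transplanted tumour.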
# [1] = dose: 12.5 mg/kg/injection, schedule: Q01DX009 (ip), vehicle: Klucel (hydroxypropylcellulose) (HPC)
# [2] = dose: 25.0 mg/kg/injection, schedule: Q01DX009 (ip), vehicle: Klucel (hydroxypropylcellulose) (HPC)
# [3] = dose: 50.0 mg/kg/injection, schedule: Q01DX009 (ip), vehicle: Klucel (hydroxypropylcellulose) (HPC)
# [4] = dose: 100.0 mg/kg/injection, schedule: Q01DX009 (ip), vehicle: Klucel (hydroxypropylcellulose) (HPC)
# [5] = dose: 100.0 mg/kg/injection, schedule: Q04DX003 (ip), vehicle: Klucel (hydroxypropylcellulose) (HPC)
# [6] = dose: 200.0 mg/kg/injection, schedule: Q01DX009 (ip), vehicle: Klucel (hydroxypropylcellulose) (HPC)
# [7] = dose: 200.0 mg/kg/injection, schedule: Q04DX003 (ip), vehicle: Klucel (hydroxypropylcellulose) (HPC)
# [8] = dose: 400.0 mg/kg/injection, schedule: Q04DX003 (ip), vehicle: Klucel (hydroxypropylcellulose) (HPC)
# [9] = dose: 50.0 mg/kg/injection, schedule: Q04DX003 (ip), vehicle: Klucel (hydroxypropylcellulose) (HPC)
# [10] = dose: 100.0 mg/kg/injection, schedule: Q04DX003 (ip), vehicle: saline with Tween-80
# [11] = dose: 200.0 mg/kg/injection, schedule: Q04DX003 (ip), vehicle: saline with Tween-80
# [12] = dose: 400.0 mg/kg/injection, schedule: Q04DX003 (ip), vehicle: saline with Tween-80
# [13] = dose: 100.0 mg/kg/injection, schedule: Q04DX003 (ip), vehicle: saline
# [14] = dose: 50.0 mg/kg/injection, schedule: Q01DX009 (ip), vehicle: water
# [15] = dose: 50.0 mg/kg/injection, schedule: Q04DX003 (ip), vehicle: water
# [16] = dose: 100.0 mg/kg/injection, schedule: Q01DX009 (ip), vehicle: water
# [17] = dose: 200.0 mg/kg/injection, schedule: Q01DX009 (ip), vehicle: water
# [18] = dose: 25.0 mg/kg/injection, schedule: Q01DX009 (ip), vehicle: saline with Tween-80
# [19] = dose: 50.0 mg/kg/injection, schedule: Q01DX009 (ip), vehicle: saline with Tween-80
# [20] = dose: 100.0 mg/kg/injection, schedule: Q01DX009 (ip), vehicle: saline with Tween-80
# [21] = dose: 12.5 mg/kg/injection, schedule: Q01DX009 (ip), vehicle: saline with Tween-80
smiles,measurement,setting,value
CC(=O)CC(C)=O.CC(=O)CC(C)=O.[Fe],T/C,"dose: 6.25 mg/kg/injection, schedule: Q01DX009 (ip), vehicle: saline",113 % of control
same,T/C,"dose: 6.25 mg/kg/injection, schedule: Q04DX003 (ip), vehicle: saline",113 % of control
same,T/C,"dose: 12.5 mg/kg/injection, schedule: Q01DX009 (ip), vehicle: saline",104 % of control
same,T/C,"dose: 12.5 mg/kg/injection, schedule: Q04DX003 (ip), vehicle: saline",113 % of control
same,T/C,"dose: 25.0 mg/kg/injection, schedule: Q01DX009 (ip), vehicle: saline",113 % of control
same,T/C,"dose: 25.0 mg/kg/injection, schedule: Q04DX003 (ip), vehicle: saline",113 % of control
same,T/C,"dose: 35.0 mg/kg/injection, schedule: Q04DX003 (ip), vehicle: saline",113 % of control
CC1CCCC/C1=N/NC(N)=O (stereo not given),T/C,[1],95 % of control
same,T/C,[2],95 % of control
same,T/C,[3],91 % of control
same,T/C,[4],104 % of control
same,T/C,[5],100 % of control
same,T/C,[6],86 % of control
same,T/C,[7],95 % of control
same,T/C,[8],95 % of control
O=C(N/N=C/c1ccc2c(c1)CCC2)c1ccccc1,T/C,"dose: 25.0 mg/kg/injection, schedule: Q04DX003 (ip), vehicle: Klucel (hydroxypropylcellulose) (HPC)",100 % of control
same,T/C,[9],96 % of control
same,T/C,[5],94 % of control
same,T/C,[7],100 % of control
COC(OC)c1nc(SC)[nH]c(=O)c1C[N+](C)(C)C,T/C,[10],100 % of control
same,T/C,[11],100 % of control
same,T/C,[12],113 % of control
Nc1cc(Cl)c(O)c(Cl)c1,T/C,"dose: 50.0 mg/kg/injection, schedule: Q04DX003 (ip), vehicle: saline",100 % of control
same,T/C,[13],100 % of control
same,T/C,"dose: 200.0 mg/kg/injection, schedule: Q04DX003 (ip), vehicle: saline",95 % of control
CC(C)CC(CC(C)C)NCC(C)OC(=O)c1ccc([N+](=O)[O-])cc1 (stereo not given),T/C,[14],106 % of control
same,T/C,[15],100 % of control
same,T/C,[16],92 % of control
same,T/C,"dose: 100.0 mg/kg/injection, schedule: Q04DX003 (ip), vehicle: water",103 % of control
same,T/C,[17],103 % of control
same,T/C,"dose: 200.0 mg/kg/injection, schedule: Q04DX003 (ip), vehicle: water",94 % of control
same,T/C,"dose: 400.0 mg/kg/injection, schedule: Q04DX003 (ip), vehicle: water",88 % of control
NC(=S)N/N=C/C(=N\NC(N)=S)C(O)C(O)C(O)CO (stereo not given),T/C,[18],100 % of control
same,T/C,[19],95 % of control
same,T/C,[20],100 % of control
same,T/C,"dose: 100.0 mg/kg/injection, schedule: Q04DX003 (ip), vehicle: saline sonified",100 % of control
O=C1c2ccccc2C(=O)N1c1ccc(S(=O)(=O)c2ccc(N3C(=O)c4ccccc4C3=O)cc2)cc1,T/C,"dose: 87.5 mg/kg/injection, schedule: Q01DX009 (ip), vehicle: saline with Tween-80",104 % of control
same,T/C,"dose: 175.0 mg/kg/injection, schedule: Q01DX009 (ip), vehicle: saline with Tween-80",100 % of control
same,T/C,"dose: 350.0 mg/kg/injection, schedule: Q01DX009 (ip), vehicle: saline with Tween-80",98 % of control
COC1(c2ccc([N+](=O)[O-])o2)OC1(C)C (stereo not given),T/C,[21],111 % of control
same,T/C,[18],118 % of control
same,T/C,[19],113 % of control
same,T/C,[20],111 % of control
same,T/C,[10],99 % of control
same,T/C,"dose: 200.0 mg/kg/injection, schedule: Q01DX009 (ip), vehicle: saline with Tween-80",117 % of control
same,T/C,[11],107 % of control
same,T/C,"dose: 400.0 mg/kg/injection, schedule: Q01DX009 (ip), vehicle: saline with Tween-80",108 % of control
same,T/C,[12],109 % of control
CC1=CCCC(C)(C)C1/C=C/C(C)=C/C(=O)O (stereo not given),T/C,"dose: 3.13 mg/kg/injection, schedule: Q01DX009 (ip), vehicle: Klucel (hydroxypropylcellulose) (HPC)",111 % of control
same,T/C,"dose: 6.25 mg/kg/injection, schedule: Q01DX009 (ip), vehicle: Klucel (hydroxypropylcellulose) (HPC)",103 % of control
same,T/C,[1],99 % of control
same,T/C,[2],99 % of control
same,T/C,[4],104 % of control
same,T/C,[6],110 % of control
O=C(OC1COC(Br)C(OC(=O)c2ccccc2)C1OC(=O)c1ccccc1)c1ccccc1 (stereo not given),T/C,[5],100 % of control
same,T/C,[7],95 % of control
same,T/C,[8],100 % of control
COC(=O)/C=C(\C)Oc1cc(Cl)c(Cl)cc1Cl,T/C,[18],90 % of control
same,T/C,[19],100 % of control
same,T/C,[20],100 % of control
same,T/C,[10],109 % of control
same,T/C,[11],100 % of control
same,T/C,[12],95 % of control
CCCCCCCCCCCC[S+](C)C,T/C,"dose: 10.0 mg/kg/injection, schedule: Q01DX010 (ip), vehicle: saline",116 % of control
same,T/C,"dose: 10.0 mg/kg/injection, schedule: Q04DX003 (ip), vehicle: saline",120 % of control
same,T/C,"dose: 20.0 mg/kg/injection, schedule: Q01DX010 (ip), vehicle: saline",112 % of control
same,T/C,"dose: 20.0 mg/kg/injection, schedule: Q04DX003 (ip), vehicle: saline",120 % of control
CCCCCCCCCCCCCCCC(=O)N(CCCN)C(C)CCCN(CC)CC (stereo not given),T/C,[21],106 % of control
same,T/C,[18],99 % of control
same,T/C,"dose: 50.0 mg/kg/injection, schedule: Q04DX003 (ip), vehicle: saline with Tween-80",107 % of control
same,T/C,[10],93 % of control
O=C(O)c1cc(-c2ccccc2)[nH]c1-c1ccccc1,T/C,"dose: 50.0 mg/kg/injection, schedule: Q01DX009 (ip), vehicle: saline",90 % of control
NC(Cc1c[nH]c2ccccc12)C(=O)OCc1ccccc1 (stereo not given),T/C,"dose: 3.12 mg/kg/injection, schedule: Q01DX009 (ip), vehicle: water",106 % of control
same,T/C,"dose: 3.12 mg/kg/injection, schedule: Q04DX003 (ip), vehicle: water",100 % of control
same,T/C,"dose: 6.25 mg/kg/injection, schedule: Q01DX009 (ip), vehicle: water",101 % of control
same,T/C,"dose: 6.25 mg/kg/injection, schedule: Q04DX003 (ip), vehicle: water",88 % of control
same,T/C,"dose: 12.5 mg/kg/injection, schedule: Q01DX009 (ip), vehicle: water",93 % of control
same,T/C,"dose: 12.5 mg/kg/injection, schedule: Q04DX003 (ip), vehicle: water",123 % of control
same,T/C,"dose: 25.0 mg/kg/injection, schedule: Q01DX009 (ip), vehicle: water",97 % of control
same,T/C,"dose: 25.0 mg/kg/injection, schedule: Q04DX003 (ip), vehicle: water",108 % of control
same,T/C,[14],92 % of control
same,T/C,[15],97 % of control
same,T/C,[16],101 % of control
same,T/C,[17],110 % of control
CC(C)[C@]12O[C@H]1[C@@H]1O[C@]13[C@]1(O[C@H]1C[C@H]1C4=C(CC[C@@]13C)C(=O)OC4)[C@@H]2O,T/C,"dose: 26.0 micrograms/kg/injection, schedule: Q01DX009 (ip), vehicle: saline",118 % of control
same,T/C,"dose: 40.0 micrograms/kg/injection, schedule: Q01DX009 (ip), vehicle: saline",118 % of control
same,T/C,"dose: 60.0 micrograms/kg/injection, schedule: Q01DX009 (ip), vehicle: saline",100 % of control
same,T/C,"dose: 89.0 micrograms/kg/injection, schedule: Q01DX009 (ip), vehicle: saline",109 % of control
same,T/C,"dose: 133.0 micrograms/kg/injection, schedule: Q01DX009 (ip), vehicle: saline",100 % of control
O=NN(CCCl)C(=O)Nc1cccc(O)c1,T/C,"dose: 22.0 mg/kg/injection, schedule: Q04DX003 (ip), vehicle: Klucel (hydroxypropylcellulose) (HPC)",190 % of control
same,T/C,[2],215 % of control
same,T/C,"dose: 33.0 mg/kg/injection, schedule: Q04DX003 (ip), vehicle: Klucel (hydroxypropylcellulose) (HPC)",186 % of control
same,T/C,"dose: 35.0 mg/kg/injection, schedule: Q01DX009 (ip), vehicle: Klucel (hydroxypropylcellulose) (HPC)",100 % of control
same,T/C,[3],88 % of control and 215 % of control
same,T/C,[9],186 % of control
same,T/C,"dose: 66.0 mg/kg/injection, schedule: Q04DX003 (ip), vehicle: saline",222 % of control
same,T/C,"dose: 75.0 mg/kg/injection, schedule: Q01DX009 (ip), vehicle: Klucel (hydroxypropylcellulose) (HPC)",158 % of control
same,T/C,[4],105 % of control
same,T/C,[5],222 % of control
same,T/C,[13],272 % of control

# — PubChem BioAssay AID328 (DTP/NCI, 2004)
